The text below walks through data of paper PMC6218115, “In Vitro Potency and Preclinical Pharmacokinetic Comparison of All-D-Enantiomeric Peptides Developed for the Treatment of Alzheimer’s Disease” (Journal of Alzheimer's Disease, 2018).

The target in data set [1] is T1, Aβ1-42 (Homo sapiens, UniProt P05067).
T1 construct: Lyophilized Aβ1 - 42 was dissolved in the respective peptide solution; purchased Isoloid GmbH (recombinant) or Bachem AG (synthetic)
The data set can be described thus: Aβ aggregation assay (Thioflavin T). In kind it is biochemical. The conditions noted are these: 10 μM Aβ1-42, 5 μM ThT, 20 mM sodium phosphate pH 7.4, 50 mM NaCl, 37°C, 70 h, triplicates, nonlinear regression; read-out: IC50, inhibition of Aβ1-42 aggregation into ThT-positive fibrils. As to the method: The potencies of ANK6, tANK6, cANK6r, and D3 to inhibit Aβ1 - 42 aggregation was examined using Thioflavin T (ThT). For this purpose, a buffer solution composed of 20 mM sodium phosphate buffer (pH 7.4) including 50 mM sodium chloride, and 5μM ThT was prepared. Afterwards, ANK6, tANK6, cANK6r, or D3 were diluted in this solution, respectively, to final peptide concentrations between 0.3125 and 80μM (ANK6 and tANK6:0.3125, 0.625, 1.25, 2.5, 5, 10, 20μM; cANK6r: 1.25, 2.5, 5, 10, 20, 40, 80μM; D3:1.17, 2.34, 4.7, 9.4, 18.8, 37.5, 75μM).
The buffer solution only served as negative control (blank). Lyophilized Aβ1 - 42 was dissolved in the respective peptide solution to a final concentration of 10μM. D-peptide solutions with the highest concentration of the respective D-peptide containing all components, except of Aβ1 - 42, served as negative controls. Aβ1 - 42 solved in buffer solution without D-peptide served as positive control. 100μL of each solution were transferred into the wells (triplicates) of 96 well microplates (PS, black, non-binding from Greiner Bio-One, Germany) and fluorescence signals (excitationλ 440 nm, emissionλ 490 nm) were measured in a Polarstar Optima plate reader (BMG, Germany) at 37°C every 20 min for 70 h. Afterwards, the respective blank curves were subtracted from each aggregation curve to exclude background fluorescence. […] The half maximal inhibitory concentration (IC50 value) was determined by plotting the percent inhibition against the respective D-peptides’ concentrations. Datasets were fitted by nonlinear regression (one site – specific binding with Hill slope, GraphPad Prism 5).

The subject of data set [2] is α1-acid glycoprotein (AGP). The conditions noted are these: Jiang et al.; read-out: KD of D3 to AGP; cited from earlier work. The text has this: This had been expected before as all three D-peptides have a positive net charge and AGP is known to more strongly bind positively charged molecules as compared to HSA, which is known to bind rather acidic or neutral molecules. This had been observed previously for D3 in a similar manner. […] The unbound fractions (fu) of the th ...

Non-standard residues stand in square brackets, D forms with d. Residues, ends and D or L forms follow the SMILES beside them.

T1 sequence (P05067 672-713 limits assumed): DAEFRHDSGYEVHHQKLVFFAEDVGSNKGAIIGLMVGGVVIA

A word on the IC50: it is the midpoint of a concentration-inhibition curve. What is called Kd is the concentration at which binding is half-saturated. In the case of `CC(C)C[C@@H](NC(=O)[C@@H](CCCNC(=N)N)NC(=O)[C@H](NC(=O)[C@@H](CCCNC(=N)N)NC(=O)[C@H]1CCCN1C(=O)[C@H](N)CCCNC(=N)N)[C@H](C)O)C(=O)N[C@H](Cc1c[nH]cn1)C(=O)N[C@@H](C(=O)N[C@H](Cc1c[nH]cn1)C(=O)N[C@H](CCCNC(=N)N)C(=O)N[C@H](CC(N)=O)C(=O)N[C@H](CCCNC(=N)N)C(N)=O)[C@H](C)O` [Peptide D3] (H-[dR][dP][dR][dT][dR][dL][dH][dT][dH][dR][dN][dR]-NH2), in data set [1], the IC50 turned out to be 7.2 µM. Also, the Kd in data set [2] is 1.8 µM.
